Like-named read-outs stand apart in the source and are kept apart here.

Series [1] in a line: Absorption of Compound I D90 5 μm suspension in Beagle dogs (Example 3-2). As to conditions: intragastric single dose 0.5 mg/kg, suspension in 0.5% MC. Type of series: in vivo. As for the experimental part: Sample to test: Compound I having D90 of 5 μm was suspended in 0.5% MC immediately before tests, to prepare 0.25 mg/mL suspension.
Animals: Three Beagle Dogs.
(1) All animals fasted for 12 h or longer before drug administration, and food was supplied 4 h after drug administration, with ad libitum access to water all the time. […] The collected blood was stored in a dry tube with heparin (normal saline containing 0.1% heparin sodium). (2) Plasma preparation: The whole blood samples collected in step (1) were subject to centrifugation at a low speed (8000 r/min, 6 min, 4° C.) to separate the plasma (the whole blood was stored in a mobile freezer at about 0 to 4° C., and plasma had to be separated within 30 minutes after the blood collection), and the plasma was kept in dark in a freezer at −70° C. (or lower) for future analysis.

A short description of series [2]: Absorption of Compound I of different particle sizes/formulations in male SD rats (Example 3-1). Format: in vivo. The following applies: intragastric single dose 1.0 mg/kg; for AUCINF: 1 mg/kg; for BA %: absolute bioavailability vs IV 2.0 mg/kg. As for the experimental part: Compound I with different formulations and/or different D90 values was compared for absorptions in male SD rats.
Samples to test: Compound I was prepared by the method as described in Example 1 of WO2014094664A1, and then pulverized to provide Compound I samples having D90 of 538 nm, 3.8 μm, 21.7 μm, 41.5 μm and 71.6 μm, respectively; immediately before the tests, these samples were suspended in 0.5% MC to obtain 1 mg/mL suspensions.
Solutions: 5% DMSO+95% (solution containing 6% HP-β-CD)
Solid dispersions: Compound I: Polyvinylpyrrolidone K30=1:8 (w/w)
The formulation for intravenous injection was a solution where Compound I was dissolved in 5% DMSO+95% (6% HP-β-CD solution), and SD rats were administered at a dose of 2 mg/kg.

In series [3] the test system is patients with diabetic nephrophthy. As to conditions: cited from earlier work.
The conditions of series [4]: rat, in vivo, po, 1 mg/kg.
Experimental: Blood collection: The animals were fixed and had their tails warmed in a water bath 10 min prior to blood collection; about 100 μL of blood was collected through the tail vein for each animal and put into an anticoagulation tube containing hepatin; the blood samples were subject to centrifugation at 8000 rpm for 6 min at 4° C. to obtain plasma samples, which had to be obtained within 30 minutes after blood was collected; the plasma samples were stored in a freezer at −80° C. for future tests.
Sample analysis: 50 μL of each plasma sample from the freezer was transferred to a centrifugal tube; 100 μL of water and 400 μL of MTBE standard solution (50 ng/mL) were added into the tube and well mixed with the plasma; the obtained mixture was mixed for 10 minutes using a vortex mixer and then subject to centrifugation for 5 minutes (12000 r/min); 300 μL of the supernatant was transferred to another centrifugal tube and blown dry with nitrogen gas; the resultant substance was dissolved in 200 μL of a solution consisting of methanol and water at a ratio of 1:1, of which 20 μL was used for the LC-MS/MS measurement.
Data processing: the compound concentration was output by Analyst 1.6.1 (AB Sciex); the means, standard deviations, and variation coefficients were calculated using Microsoft Excel (no calculation needed if these parameters were directed output by Analyst 1.6.1), and pharmacokinetic parameters were determined using the NCA analysis object in Pharsight Phoenix 6.3.

The term AUC(0-inf) denotes the area under the concentration-time curve extrapolated to infinity. Low readings indicate less exposure, high ones more exposure. On to `N#Cc1ccc(N2N=C3c4ccc(C(=O)N5CCC(O)CC5)nc4CC[C@@H]3[C@@H]2C2CCCC2)cc1Cl` [Compound I having D90 of 5 μm], for which the area under the curve AUC(0-inf) in series [1] (dog, plasma, po) came to 0.506 µg·h/mL. For the same molecule, the BA % in series [1] is 57.4%.
Consider `N#Cc1ccc(N2N=C3c4ccc(C(=O)N5CCC(O)CC5)nc4CC[C@@H]3[C@@H]2C2CCCC2)cc1Cl` [Compound I with D90 of 3.8 μm], for which, in series [2], the AUCINF came out at 1.045 µg·h/mL and the BA % was found to be 66.9%.
For the molecule `N#Cc1ccc(N2N=C3c4ccc(C(=O)N5CCC(O)CC5)nc4CC[C@@H]3[C@@H]2C2CCCC2)cc1Cl` [Compound I with D90 of 21.7 μm], in series [2], the AUCINF came out at 0.854 µg·h/mL and the BA % is 54.6%.
In series [2], `N#Cc1ccc(N2N=C3c4ccc(C(=O)N5CCC(O)CC5)nc4CC[C@@H]3[C@@H]2C2CCCC2)cc1Cl` [Compound I with D90 of 41.5 μm] registered an AUCINF of 0.545 µg·h/mL and a BA % of 34.8%.
For `N#Cc1ccc(N2N=C3c4ccc(C(=O)N5CCC(O)CC5)nc4CC[C@@H]3[C@@H]2C2CCCC2)cc1Cl` [Compound I with D90 of 72.0 μm], in series [2], the AUCINF amounted to 0.207 µg·h/mL and the BA % stood at 13.2%. In addition, in series [2] (listed as Compound I with D90 of 72.2 μm), the BA % turned out to be 13.2%.
In series [2], `N#Cc1ccc(N2N=C3c4ccc(C(=O)N5CCC(O)CC5)nc4CC[C@@H]3[C@@H]2C2CCCC2)cc1Cl` [Compound I with D90 of 538 nm] yielded an AUCINF of 1.287 µg·h/mL and a BA % of 82.3%.
Regarding `CCOc1ncc(C)c2c1[C@H](c1ccc(C#N)cc1OC)C(C(N)=O)=C(C)N2` [Finerenone], the UACR reduced in series [3] (Finerenone 7.5 mg/day) is recorded as 21%; in series [3] (Finerenone 10 mg/day), 24%; in series [3] (Finerenone 15 mg/day), 33%; in series [3] (Finerenone 20 mg/day) it was 38%. Further, the “incidence of discontinuation due to onset of hyperkalemia” value in series [3] (Finerenone 7.5 mg/day) is on record as 2.1%; in series [3] (Finerenone 10 mg/day), 0%; in series [3] (Finerenone 15 mg/day), 3.2%; in series [3] (Finerenone 20 mg/day), 1.7%.
Molecule Carbomer came in with an AUCINF in series [4] of 0.289 µg·h/mL.
In the case of Hydroxypropyl cellulose, in series [4], the AUCINF was determined as 0.535 µg·h/mL.
Consider Hydroxypropyl methyl cellulose, for which the AUCINF in series [4] is 0.483 µg·h/mL.
In the case of Poloxamer 188, in series [4], the AUCINF is 0.712 µg·h/mL.
In the case of Polyethylene glycol 400, the AUCINF in series [4] came out at 0.613 µg·h/mL.
Take Polyoxyl(40) stearate: the AUCINF in series [4] came out at 0.427 µg·h/mL.
Polysorbate 80 had an AUCINF in series [4] of 0.654 µg·h/mL.
On to Polyvinyl alcohol, for which the AUCINF in series [4] was 0.603 µg·h/mL.
Consider hydroxypropyl-β-cyclodextrin, for which, in series [4], the AUCINF was determined as 0.35 µg·h/mL.
